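96-well plates; 48 h exposure; 5 concentrations. Endpoints by linear interpolation between flanking doses. Not reached: highest tested concentration assigned. Abbreviation: GI50, concentration required for 50% inhibition of growth.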 The source made the active and inactive calls. No stated cut-off is given here; in the data, active = GI50 up to about 1.1 µM and inactive = higher. Starred links: 1 amine or outer side, 2 acyl side, 3 side chain; linkers in the order of their positions; H or OH if unused. Non-standard residues stand in square brackets, D forms with d. Residues, ends and D or L forms follow the SMILES beside them. X35 = C=CCC(O[*:1])C(=O)[*:2]; NMeV = CN[CH](C(=O)O)C(C)C; NMeA = CN[CH](C)C(=O)O; βAla = NCCC(=O)O
Assays:
Assay in all cases: DTP human tumour cell line panel, 48 h
786-0 = test system: 786-0
Hs-578T = test system: Hs-578T
MCF7 = test system: MCF7
MDA-MB-231 = test system: MDA-MB-231
MDA-MB-435 = test system: MDA-MB-435
Malme-3M = test system: Malme-3M
NCI-H226 = test system: NCI-H226
OVCAR-4 = test system: OVCAR-4
OVCAR-8 = test system: OVCAR-8
PC-3 = test system: PC-3
SNB-19 = test system: SNB-19
U-251 = test system: U-251
UACC-62 = test system: UACC-62
CCRF-CEM = test system: CCRF-CEM
COLO 205 = test system: COLO 205
HOP-92 = test system: HOP-92
RPMI-8226 = test system: RPMI-8226
SNB-75 = test system: SNB-75
NCI-H460 = test system: NCI-H460

| Structure (SMILES) | GI50 (786-0) | GI50 (Hs-578T) | GI50 (MCF7) | GI50 (MDA-MB-231) | GI50 (MDA-MB-435) | GI50 (Malme-3M) | GI50 (NCI-H226) | GI50 (OVCAR-4) | GI50 (OVCAR-8) | GI50 (PC-3) | GI50 (SNB-19) | GI50 (U-251) | GI50 (UACC-62) | GI50 (CCRF-CEM) | GI50 (COLO 205) | GI50 (HOP-92) | GI50 (RPMI-8226) | GI50 (SNB-75) | GI50 (NCI-H460) |
| --- | --- | --- | --- | --- | --- | --- | --- | --- | --- | --- | --- | --- | --- | --- | --- | --- | --- | --- | --- |
| COCC1OC([P+](c2ccccc2)(c2ccccc2)c2ccccc2)CC(OC)C1OC (stereo not drawn) | 53.2 µM (inactive) | 28.2 µM (inactive) | 38 µM (inactive) | 44.3 µM (inactive) | 29.6 µM (inactive) | 33.9 µM (inactive) | 33.9 µM (inactive) | 44.1 µM (inactive) | 28.8 µM (inactive) | 30.5 µM (inactive) | 34.7 µM (inactive) | 35.6 µM (inactive) | 49.5 µM (inactive) | – | – | – | – | – | – |
| CCc1n[nH]c(=O)n1/N=C/c1c(O)ccc2ccccc12 | > 100 µM (inactive) | 2.06 µM (inactive) | > 100 µM (inactive) | > 100 µM (inactive) | > 100 µM (inactive) | – | – | > 100 µM (inactive) | > 100 µM (inactive) | > 100 µM (inactive) | > 100 µM (inactive) | > 100 µM (inactive) | > 100 µM (inactive) | > 100 µM (inactive) | > 100 µM (inactive) | > 100 µM (inactive) | > 100 µM (inactive) | > 100 µM (inactive) | – |
| Cc1nc2c(Br)cc(Br)cc2c(=O)n1-c1ccccc1N | 43.8 µM (inactive) | 25.9 µM (inactive) | 38.9 µM (inactive) | 47.4 µM (inactive) | 39.4 µM (inactive) | 28.4 µM (inactive) | 30.3 µM (inactive) | > 100 µM (inactive) | 62.5 µM (inactive) | 26.8 µM (inactive) | 48.2 µM (inactive) | – | 30.1 µM (inactive) | 30.1 µM (inactive) | 20.7 µM (inactive) | – | – | 22.9 µM (inactive) | 31.8 µM (inactive) |
| O=c1[nH]c2[nH]c(-c3ccc(Br)cc3)cc2c2ccccc12 | 35.6 µM (inactive) | 15.1 µM (inactive) | > 100 µM (inactive) | 15 µM (inactive) | > 100 µM (inactive) | > 100 µM (inactive) | 43.5 µM (inactive) | 24.7 µM (inactive) | 23.3 µM (inactive) | > 100 µM (inactive) | 29.4 µM (inactive) | 28.8 µM (inactive) | > 100 µM (inactive) | – | 34.7 µM (inactive) | – | 70.5 µM (inactive) | 19.4 µM (inactive) | > 100 µM (inactive) |
| Cc1ccc2c(=O)c(-c3nnc(NC4CCCCC4)s3)c[nH]c2n1 | > 100 µM (inactive) | > 100 µM (inactive) | > 100 µM (inactive) | > 100 µM (inactive) | > 100 µM (inactive) | > 100 µM (inactive) | > 100 µM (inactive) | > 100 µM (inactive) | > 100 µM (inactive) | > 100 µM (inactive) | > 100 µM (inactive) | > 100 µM (inactive) | > 100 µM (inactive) | > 100 µM (inactive) | > 100 µM (inactive) | – | > 100 µM (inactive) | – | > 100 µM (inactive) |
| CC(=O)N1N(c2ccc([N+](=O)[O-])cc2)C(=O)C1(C)C | 18.1 µM (inactive) | 33.5 µM (inactive) | 23.6 µM (inactive) | 20.1 µM (inactive) | 20.6 µM (inactive) | 19.6 µM (inactive) | 21.1 µM (inactive) | 19.2 µM (inactive) | 23.2 µM (inactive) | 15.7 µM (inactive) | 50.4 µM (inactive) | 21.7 µM (inactive) | 18.5 µM (inactive) | 7.08 µM (inactive) | 15.5 µM (inactive) | – | – | 18.7 µM (inactive) | 29.4 µM (inactive) |
| CC(C)/C(Cl)=N\OC(=O)Nc1ccc(S(N)(=O)=O)cc1 | 17.3 µM (inactive) | 25.2 µM (inactive) | 12.1 µM (inactive) | 12.7 µM (inactive) | – | 4.59 µM (inactive) | 21 µM (inactive) | 25 µM (inactive) | 17.9 µM (inactive) | 18.5 µM (inactive) | > 53.2 µM (inactive) | 19.5 µM (inactive) | 17.9 µM (inactive) | 1.75 µM (inactive) | 1.98 µM (inactive) | 5.25 µM (inactive) | 2.16 µM (inactive) | 9.33 µM (inactive) | 20.5 µM (inactive) |
| O=[N+]([O-])c1cccc2nc3ccccc3c(NCCCCCNc3c4ccccc4nc4cccc([N+](=O)[O-])c34)c12 | 0.0157 µM (active) | 0.0879 µM (active) | 0.0161 µM (active) | 0.0269 µM (active) | – | 0.129 µM (active) | 0.245 µM (active) | 0.153 µM (active) | 0.0492 µM (active) | 0.102 µM (active) | 0.116 µM (active) | 0.0368 µM (active) | 0.153 µM (active) | 0.0518 µM (active) | 0.0246 µM (active) | 0.0199 µM (active) | 0.00828 µM (active) | 0.197 µM (active) | 0.0296 µM (active) |
| CC1N(O)C(c2ccccc2)C(c2ccccc2)=[N+]1[O-] (stereo not drawn) | > 100 µM (inactive) | > 100 µM (inactive) | > 100 µM (inactive) | > 100 µM (inactive) | – | > 100 µM (inactive) | > 100 µM (inactive) | > 100 µM (inactive) | > 100 µM (inactive) | > 100 µM (inactive) | > 100 µM (inactive) | > 100 µM (inactive) | > 100 µM (inactive) | > 100 µM (inactive) | > 100 µM (inactive) | > 100 µM (inactive) | – | 84.3 µM (inactive) | > 100 µM (inactive) |
| COc1cc(C2C(Cl)C(=O)N2c2ccc(Br)cc2)cc(I)c1O (stereo not drawn) | > 100 µM (inactive) | 59.6 µM (inactive) | 87.9 µM (inactive) | 18.9 µM (inactive) | 47.5 µM (inactive) | – | – | 70.5 µM (inactive) | > 100 µM (inactive) | > 100 µM (inactive) | 73.5 µM (inactive) | > 100 µM (inactive) | 25.5 µM (inactive) | 26.4 µM (inactive) | > 100 µM (inactive) | – | 33.1 µM (inactive) | 37.8 µM (inactive) | 58.3 µM (inactive) |
| COC(=O)C1(C(=O)OC)CC2=C(S(=O)(=O)c3ccccc3)C[C@H](S(=O)(=O)c3ccccc3)[C@H]2C1 | > 100 µM (inactive) | > 100 µM (inactive) | – | 27.4 µM (inactive) | 76.4 µM (inactive) | 80.2 µM (inactive) | > 100 µM (inactive) | > 100 µM (inactive) | > 100 µM (inactive) | 41.9 µM (inactive) | 71.6 µM (inactive) | > 100 µM (inactive) | 23.3 µM (inactive) | > 100 µM (inactive) | 62.4 µM (inactive) | 19.6 µM (inactive) | 11.7 µM (inactive) | 37.8 µM (inactive) | 39.6 µM (inactive) |
| O=C1CCC2(CCO1)OCCO2 | > 100 µM (inactive) | > 100 µM (inactive) | > 100 µM (inactive) | > 100 µM (inactive) | > 100 µM (inactive) | > 100 µM (inactive) | > 100 µM (inactive) | > 100 µM (inactive) | > 100 µM (inactive) | > 100 µM (inactive) | > 100 µM (inactive) | > 100 µM (inactive) | > 100 µM (inactive) | > 100 µM (inactive) | – | – | – | > 100 µM (inactive) | > 100 µM (inactive) |
| CCc1n[nH]c(=O)n1N1C(=O)CCC1=O | > 100 µM (inactive) | > 100 µM (inactive) | > 100 µM (inactive) | > 100 µM (inactive) | > 100 µM (inactive) | > 100 µM (inactive) | > 100 µM (inactive) | > 100 µM (inactive) | > 100 µM (inactive) | > 100 µM (inactive) | > 100 µM (inactive) | > 100 µM (inactive) | > 100 µM (inactive) | > 100 µM (inactive) | > 100 µM (inactive) | – | > 100 µM (inactive) | > 100 µM (inactive) | > 100 µM (inactive) |
| O=C(Nc1ccc(Cl)cc1)c1cc2c(cc1Cl)Sc1nccn1S2(=O)=O | 29.6 µM (inactive) | 33.8 µM (inactive) | 69.3 µM (inactive) | 43.7 µM (inactive) | 4.42 µM (inactive) | 77.8 µM (inactive) | 51.3 µM (inactive) | 37.3 µM (inactive) | 51.3 µM (inactive) | 85.3 µM (inactive) | 44.4 µM (inactive) | 10.7 µM (inactive) | – | > 100 µM (inactive) | > 100 µM (inactive) | – | – | 3.4 µM (inactive) | 42.5 µM (inactive) |
| c1ccc2c(c1)Nc1c3ccccc3nc3cccc-2c13 | 0.638 µM (active) | 1.73 µM (inactive) | 1.24 µM (inactive) | 0.923 µM (active) | 1.61 µM (inactive) | 1.66 µM (inactive) | 2.01 µM (inactive) | 1.15 µM (inactive) | 0.507 µM (active) | 0.968 µM (active) | 1.82 µM (inactive) | 0.998 µM (active) | 1.63 µM (inactive) | 0.305 µM (active) | 0.857 µM (active) | – | 0.587 µM (active) | 1.65 µM (inactive) | 0.378 µM (active) |
| C=CCC1OC(=O)CCNC(=O)C(C)N(C)C(=O)C(C(C)C)N(C)C(=O)C(C(C)CC)NC(=O)C2CCCN2C1=O (stereo not drawn) (cyclo([X35]PI[NMeV][NMeA][βAla]); configuration not given here) | 4.61 µM (inactive) | 91.6 µM (inactive) | > 100 µM (inactive) | 1.62 µM (inactive) | 4.22 µM (inactive) | – | – | 66.8 µM (inactive) | 7.89 µM (inactive) | 5.85 µM (inactive) | > 100 µM (inactive) | 49.5 µM (inactive) | 2.68 µM (inactive) | 3.1 µM (inactive) | > 100 µM (inactive) | 21.7 µM (inactive) | 2.62 µM (inactive) | 1.25 µM (inactive) | 3.66 µM (inactive) |

Reference: ChEMBL document CHEMBL1201862, “PubChem BioAssay data set” (2004)
